This is an account of results in patent publication US5468742A, “8-vinyl- and 9-ethinyl-quinolone-carboxylic acids” (Bayer Aktiengesellschaft, priority 1991, dated 1995).

Holding throughout (assay): MIC, serial dilution on Iso-Sensitest agar
What all share (type): cell-based

The test system of one assay is Micrococcus luteus 9341. The method, then: (§1) The minimum inhibitory concentrations (MIC) were determined on Iso-Sensitest agar (Oxoid) using the serial dilution method. For each test substance, a series of agar plates was prepared which contained concentrations of the active compound which decreased as the dilution was doubled. The agar plates were inoculated using a multipoint inoculator (Denley). The inocula used were overnight cultures of the pathogens which had previously been diluted to such an extent that each inoculation point contained approx. 10^4 colony-forming units. The inoculated agar plates were incubated at 37° C., and growth of the pathogens was determined after approx. 20 hours. The MIC value (μg/ml) indicates the lowest concentration of active compound where no growth was discernible to the naked eye.
(§2) The table below lists the MIC values of some of the compounds according to the invention compared with ciprofloxacin.

For the next assay, the system named is E. coli Neumann. The note with it: Escherichia coli. The method, then:
as §1, §2

The subject of assay [1] is Enterococcus faecalis 9790. The procedure: as §1, §2
For assay [2], the system named is Acinetobacter calcoaceticus 14068. The method, then: as §1, §2
Assay [3] deals with Staphylococcus aureus 133. The procedure: as §1, §2
Assay [4] deals with Staphylococcus aureus ICB 25701. The method, then: as §1, §2
Assay [5] relates to Enterococcus faecalis 27101. The procedure:
as §1, §2

The test system of assay [6] is Staphylococcus aureus 1756. The method, then: as §1, §2
[7] abbreviates: Micrococcus luteus 9341, approx. 10^4 CFU per inoculation point, 37° C., approx. 20 hours, read-out: MIC.
[8] abbreviates: E. coli Neumann, approx. 10^4 CFU per inoculation point, 37° C., approx. 20 hours, read-out: MIC.
Where [9] appears, read: Enterococcus faecalis 9790, approx. 10^4 CFU per inoculation point, 37° C., approx. 20 hours, read-out: MIC.
[10] abbreviates: Acinetobacter calcoaceticus 14068, approx. 10^4 CFU per inoculation point, 37° C., approx. 20 hours, read-out: MIC.
Setting [11] is: Staphylococcus aureus 133, approx. 10^4 CFU per inoculation point, 37° C., approx. 20 hours, read-out: MIC.
Setting [12] is: ICB25701, Staphylococcus aureus ICB 25701, approx. 10^4 CFU per inoculation point, 37° C., approx. 20 hours, read-out: MIC.
[13] abbreviates: Enterococcus faecalis 27101, approx. 10^4 CFU per inoculation point, 37° C., approx. 20 hours, read-out: MIC.
[14] abbreviates: Staphylococcus aureus 1756, approx. 10^4 CFU per inoculation point, 37° C., approx. 20 hours, read-out: MIC.

≈ marks a conversion by molar mass, not a printed value. Where two headings read alike, the source gives them in different places.

For orientation: MIC means the smallest concentration in the dilution series that meets the test's criterion for growth inhibition. Regarding `C#Cc1c(N2C[C@@H]3CCCN[C@@H]3C2)c(F)cc2c(=O)c(C(=O)O)cn(C3CC3)c12` (relative stereo) [Example 5, 1-cyclopropyl-7-(cis-2,8-diazabicyclo[4.3.0]non-8-yl)-8-ethinyl-6-fluoro-1,4-dihydro-4-oxo-3-quinolinecarboxylic acid], the minimal inhibitory concentration (MIC) with Micrococcus luteus 9341 (setting [7]) is 0.5 mg/L (≈ 1.26 µM); with E. coli Neumann (setting [8]), 0.02 mg/L (≈ 0.0506 µM); in assay [1] (setting [9]), 0.13 mg/L (≈ 0.329 µM); in assay [2] (setting [10]), 0.03 mg/L (≈ 0.0759 µM); in assay [3] (setting [11]) it was 0.13 mg/L (≈ 0.329 µM); in assay [4] (setting [12]) it was 1 mg/L (≈ 2.53 µM). Moreover, the MIC in assay [5] (setting [13]) was determined as 0.13 mg/L (≈ 0.329 µM); in assay [6] (setting [14]) it was 0.03 mg/L (≈ 0.0759 µM).

`C#Cc1c(N2CC3CC=CC(NC)C3C2)c(F)cc2c(=O)c(C(=O)O)cn(C3CC3)c12` (centres unmarked) [Example 13, 1-cyclopropyl-8-ethinyl-6-fluoro-1,4-dihydro-7-(4-methylamino-1,3,3a,4,7,7a-hexahydroisoindol-2-yl)-4-oxo-3-quinolinecarboxylic acid]: the minimum inhibitory concentration (MIC) in the assay on Micrococcus luteus 9341 (setting [7]) was 0.25 mg/L (≈ 0.593 µM); with E. coli Neumann (setting [8]), 0.13 mg/L (≈ 0.308 µM); in assay [1] (setting [9]), 0.13 mg/L (≈ 0.308 µM); in assay [2] (setting [10]), 0.13 mg/L (≈ 0.308 µM); in assay [3] (setting [11]) it was 0.06 mg/L (≈ 0.142 µM); in assay [4] (setting [12]), 0.25 mg/L (≈ 0.593 µM). Moreover, the figures for the minimum inhibitory concentration (MIC) in assay [5] (setting [13]) and in assay [6] (setting [14]) were 0.13 mg/L (≈ 0.308 µM) and 0.06 mg/L (≈ 0.142 µM), respectively.

Regarding `CC#Cc1c(N2CC3NCCOC3C2)c(F)cc2c(=O)c(C(=O)O)cn(C3CC3)c12` (centres unmarked) [Example 8, 1-cyclopropyl-6-fluoro-1,4-dihydro-7-(2-oxa-5,8-diazabicyclo[4.3.0]non-8-yl)-4-oxo-8-(propin-1-yl)-3-quinolinecarboxylic acid], the MIC in the assay with Micrococcus luteus 9341 (setting [7]) was 2 mg/L (≈ 4.86 µM); with E. coli Neumann (setting [8]) it was 0.25 mg/L (≈ 0.608 µM); in assay [1] (setting [9]), 1 mg/L (≈ 2.43 µM); in assay [2] (setting [10]), 0.5 mg/L (≈ 1.22 µM); in assay [3] (setting [11]), 0.13 mg/L (≈ 0.316 µM); in assay [4] (setting [12]), 4 mg/L (≈ 9.72 µM). Moreover, the MIC in assay [5] (setting [13]) came out at 0.5 mg/L (≈ 1.22 µM); in assay [6] (setting [14]) it was 0.13 mg/L (≈ 0.316 µM).

Take `C#Cc1c(N2CCN(C)CC2)c(F)cc2c(=O)c(C(=O)O)cn(C3CC3)c12` [Example 1, 1-cyclopropyl-8-ethinyl-6-fluoro-1,4-dihydro-7-(4-methyl-1-piperazinyl)-4-oxo-3-quinolinecarboxylic acid]: the minimal inhibitory concentration (MIC) with E. coli Neumann (setting [8]) came out at 0.02 mg/L (≈ 0.0541 µM); in assay [1] (setting [9]), 0.25 mg/L (≈ 0.677 µM); in assay [3] (setting [11]), 0.13 mg/L (≈ 0.352 µM); in assay [4] (setting [12]), 4 mg/L (≈ 10.8 µM); in assay [5] (setting [13]), 0.25 mg/L (≈ 0.677 µM); in assay [6] (setting [14]), 0.13 mg/L (≈ 0.352 µM).

As to `C#Cc1c(N2CC3NCCOC3C2)c(F)cc2c(=O)c(C(=O)O)cn(C3CC3)c12` (centres unmarked) [Example 7, 1-cyclopropyl-8-ethinyl-6-fluoro-1,4-dihydro-7-(2-oxa-5,8-diazabicyclo[4.3.0]non-8-yl)-4-oxo-3-quinolinecarboxylic acid], the MIC with Micrococcus luteus 9341 (setting [7]) was 1 mg/L (≈ 2.52 µM); in the assay on E. coli Neumann (setting [8]) it was 0.13 mg/L (≈ 0.327 µM); in assay [1] (setting [9]) it was 0.25 mg/L (≈ 0.629 µM); in assay [2] (setting [10]), 0.25 mg/L (≈ 0.629 µM); in assay [3] (setting [11]), 0.06 mg/L (≈ 0.151 µM); in assay [4] (setting [12]), 1 mg/L (≈ 2.52 µM). Also, the results for the minimal inhibitory concentration (MIC) in assay [5] (setting [13]) and in assay [6] (setting [14]) were 0.25 mg/L (≈ 0.629 µM) and 0.06 mg/L (≈ 0.151 µM), respectively.

In the case of `O=C(O)c1cn(C2CC2)c2cc(N3CCNCC3)c(F)cc2c1=O` [Ciprofloxacin, ciprofloxacin, reference compound], the minimal inhibitory concentration (MIC) is 2 mg/L (≈ 6.04 µM) against Micrococcus luteus 9341 (Micrococcus luteus, 9341, 20 h); 0.02 mg/L (≈ 0.0604 µM) in the assay on E. coli Neumann (20 h); 0.5 mg/L (≈ 1.51 µM) in assay [1] (Enterococcus faecalis, 9790, 20 h); 0.25 mg/L (≈ 0.754 µM) in assay [2] (Acinetobacter calcoaceticus, 14068, 20 h); 0.25 mg/L (≈ 0.754 µM) in assay [3] (Staphylococcus aureus, 133, 20 h); 16 mg/L (≈ 48.3 µM) in assay [4] (Staphylococcus aureus, ICB25701, 20 h). In addition, the MIC is 0.5 mg/L (≈ 1.51 µM) in assay [5] (Enterococcus faecalis, 27101, 20 h) and 0.25 mg/L (≈ 0.754 µM) in assay [6] (Staphylococcus aureus, 1756, 20 h).

With `C=C(Cl)c1c(N2CCN(C)CC2)c(F)cc2c(=O)c(C(=O)O)cn(C3CC3)c12.Cl` [Example 17, 8-(1-chlorovinyl)-1-cyclopropyl-6-fluoro-1,4-dihydro-7-(4-methyl-1-piperazinyl)-4-oxo-3-quinolinecarboxylic acid hydrochloride], the MIC in the assay on Micrococcus luteus 9341 (setting [7]) is 1 mg/L; in the assay with E. coli Neumann (setting [8]), 0.03 mg/L; in assay [1] (setting [9]) it was 0.25 mg/L; in assay [2] (setting [10]) it was 0.03 mg/L; in assay [3] (setting [11]), 0.13 mg/L; in assay [4] (setting [12]), 4 mg/L. Also, the minimal inhibitory concentration (MIC) amounted to 0.25 mg/L in assay [5] (setting [13]) and 0.13 mg/L in assay [6] (setting [14]).

`C=C(C)C#Cc1c(N2CCN(C)CC2)c(F)cc2c(=O)c(C(=O)O)cn(C3CC3)c12` [Example 14, 1-cyclopropyl-6-fluoro-1,4-dihydro-8-(3-methyl-but-3-en-1-inyl)-7-(4-methyl-1-piperazinyl)-4-oxo-3-quinolinecarboxylic acid]: the MIC is 8 mg/L (≈ 19.5 µM) in the assay on Micrococcus luteus 9341 (setting [7]); 0.02 mg/L (≈ 0.0488 µM) in the assay on E. coli Neumann (setting [8]); 1 mg/L (≈ 2.44 µM) in assay [1] (setting [9]); 0.03 mg/L (≈ 0.0733 µM) in assay [2] (setting [10]); 0.02 mg/L (≈ 0.0488 µM) in assay [3] (setting [11]); 32 mg/L (≈ 78.2 µM) in assay [4] (setting [12]). Moreover, the MIC in assay [5] (setting [13]) came out at 1 mg/L (≈ 2.44 µM); in assay [6] (setting [14]), 0.02 mg/L (≈ 0.0488 µM).
